From US9518018B2, “3-alkoxy, thioalkyl and amino-4-amino-6-(substituted)picolinates and their use as herbicides” (Dow AgroSciences LLC, priority 2011, dated 2016)

Key:
Type in all cases: in vivo
[1] = test system: TRZAS: wheat, spring (Triticum aestivum); assay: Post-Emergent Test I herbicidal activity; conditions: for GR20 TRZAS: Table 4, growth reduction of 20% of plant growth; for GR20 TRZAS / GR50 TRZAS / GR80 TRZAS: 14 days after application, probit analysis; for GR50 TRZAS: Table 4, growth reduction of 50% of plant growth; for GR80 TRZAS: Table 4, growth reduction of 80% of plant growth
How it was run: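 Seedlings are kept at 23–29 °C day / 22–28 °C night with ~15 h light and subirrigated after spraying to avoid wash-off. Compound in a crop-oil concentrate and Triton X-155 carrier is applied at 187 L/ha; 14-d visual injury feeds probit-derived growth-reduction doses (GR20/50/80).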

[2] = test system: POLCO: buckwheat, wild (Polygonum convolvulus); assay: Post-Emergent Test I herbicidal activity; conditions: for GR20 POLCO: Table 4, growth reduction of 20% of plant growth; for GR20 POLCO / GR50 POLCO / GR80 POLCO: 14 days after application, probit analysis; for GR50 POLCO: Table 4, growth reduction of 50% of plant growth; for GR80 POLCO: Table 4, growth reduction of 80% of plant growth
How it was run: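 Greenhouse plants at first-second true leaf stage sprayed post-emergence by track sprayer at 187 L/ha with compound in acetone/DMSO/water/isopropanol carrier with crop oil concentrate and Triton X-155, top rate plus ½× to 1/16× serial rates. Injury scored visually at 14 d, 0-100% versus untreated plants; GR20, GR50, GR80 from probit analysis.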

[3] = test system: CYPRO = Cyperus rotundus L. (purple nutsedge); assay: In-water applied herbicidal activity in transplanted paddy rice; conditions: 21 DAA
Method: (§1) Rice seeds were planted in Sun Gro MetroMix 306 planting mixture, which typically has a pH of 6.0 to 6.8 and an organic matter content of about 30 percent, in plastic plug trays. Seedlings at the second or third leaf stage of growth were transplanted into 650 mL of mud contained in 960 mL non-perforated plastic pots with a surface area of 86.59 cm^2 four days prior to herbicide application. The paddy was created by filling the 2.5 to 3 cm headspace of the pots with water. When required to ensure good germination and healthy plants, a fungicide treatment and/or other chemical or physical treatment was applied. The plants were grown for 4-14 d in a greenhouse with an approximate 14-h photoperiod which was maintained at about 29° C. during the day and 26° C. during the night. Nutrients were added as Osmocote (17:6:10, Nitrogen:Phosphorus:Potassium (N:P:K)+minor nutrients) at 2 grams (g) per cup. Water was added on a regular basis to maintain the paddy flood, and supplemental lighting was provided with overhead metal halide 1000-Watt lamps as necessary. The plants were employed for testing when they reached the second or third true leaf stage. Treatments consisted of compounds 45, 34, and 66. For technical grade compounds, a weighed amount, determined by the highest rate to be tested, was placed in an individual 120 mL glass vial and was dissolved in 20 mL of acetone to obtain concentrated stock solutions. […] The concentrated stock solutions obtained were diluted with 20 mL of an aqueous mixture containing 2.5% Agri-dex crop oil concentrate (v/v). Applications were made by injecting an appropriate amount of the stock solution into the aqueous layer of the paddy. Control plants were treated in the same manner with the solvent blank. All treated plant material received the same concentration of acetone and crop oil concentrate. The treated plants and control plants were placed in a greenhouse as described above and water was added as needed to maintain a paddy flood. After approximately 3 weeks, the condition of the test plants, compared with that of the untreated plants, was determined visually and scored on a scale of 0 to 100 percent where 0 corresponds to no injury and 100 corresponds to complete kill. By applying the well-accepted probit analysis as described by J. Berkson in Journal of the […], 48, 565 (1953) and by D. Finney in “Probit Analysis” Cambridge University Press (1952) or by plotting the mean data and fitting a logarithmic curve to the portion of the data where there was a dose response using Microsoft Excel®, the above data can be used to calculate GR50 and GR90 values, which are defined as growth reduction factors that correspond to the effective dose of herbicide required to kill or control 50 percent or 90 percent, respectively, of a target plant.

[4] = test system: LIDDU = Lindernia dubia (L.) PENNELL (low falsepimpernel); assay: as above; conditions: 21 DAA
Method: as §1

[5] = dose to kill or control 50 percent
[6] = dose to kill or control 90 percent

SMILES	Visual Growth Reduction (%)-14 Days after Application TRZAS ([1]; Table 4, 17.5 g ai/ha) [%]	Visual Growth Reduction (%)-14 Days after Application TRZAS ([1]; Table 4, 35 g ai/ha) [%]	Visual Growth Reduction (%)-14 Days after Application TRZAS ([1]; Table 4, 70 g ai/ha) [%]	Visual Growth Reduction (%)-14 Days after Application TRZAS ([1]; Table 4, 140 g ai/ha) [%]	Visual Growth Reduction (%)-14 Days after Application TRZAS ([1]; Table 4, 280 g ai/ha) [%]	GR20 TRZAS [1] [g ai/ha]	GR50 TRZAS [1] [g ai/ha]	GR80 TRZAS [1] [g ai/ha]	Visual Growth Reduction (%)-14 Days after Application POLCO ([2]; Table 4, 17.5 g ai/ha) [%]	Visual Growth Reduction (%)-14 Days after Application POLCO ([2]; Table 4, 35 g ai/ha) [%]	Visual Growth Reduction (%)-14 Days after Application POLCO ([2]; Table 4, 70 g ai/ha) [%]	Visual Growth Reduction (%)-14 Days after Application POLCO ([2]; Table 4, 140 g ai/ha) [%]	Visual Growth Reduction (%)-14 Days after Application POLCO ([2]; Table 4, 280 g ai/ha) [%]	GR20 POLCO [2] [g ai/ha]	GR50 POLCO [2] [g ai/ha]	GR80 POLCO [2] [g ai/ha]	Visual Growth Reduction (%)-14 Days after Application TRZAS ([1]; Table 4, 8.75 g ai/ha) [%]	Visual Growth Reduction (%)-14 Days after Application POLCO ([2]; Table 4, 8.75 g ai/ha) [%]	also measured
COc1c(N)cc(-c2ccc(Cl)cc2)nc1C(=O)O [Compound 46]	15	20	40	70	75	27.1	91.7	310	80	90	100	100	100	<17.5	<17.5	18.6			
COc1c(C(=O)OCc2ccccc2)nc(-c2ccc(Cl)c(OC)c2F)c(F)c1N [Compound 66, benzyl 4-amino-6-(4-chloro-2-fluoro-3-methoxyphenyl)-5-fluoro-3-methoxypicolinate]																			Mean Visual Injury (%)-21 Days After Application CYPRO ([3]; 4.38 g ae/ha): 65%; Mean Visual Injury (%)-21 Days After Application CYPRO ([3]; 8.75 g ae/ha): 100%; Mean Visual Injury (%)-21 Days After Application CYPRO ([3]; 17.5 g ae/ha): 100%; Mean Visual Injury (%)-21 Days After Application CYPRO ([3]; 35 g ae/ha): 100%; Mean Visual Injury (%)-21 Days After Application CYPRO ([3]; 70 g ae/ha): 100%; GR50 CYPRO [3, 5]: <4.38 g ae/ha; GR90 CYPRO [3, 6]: 7.2 g ae/ha; Mean Visual Injury (%)-21 Days After Application LIDDU ([4]; 2.19 g ae/ha): 0%; Mean Visual Injury (%)-21 Days After Application LIDDU ([4]; 4.38 g ae/ha): 100%; Mean Visual Injury (%)-21 Days After Application LIDDU ([4]; 8.75 g ae/ha): 100%; Mean Visual Injury (%)-21 Days After Application LIDDU ([4]; 17.5 g ae/ha): 100%; Mean Visual Injury (%)-21 Days After Application LIDDU ([4]; 35 g ae/ha): 100%; Mean Visual Injury (%)-21 Days After Application LIDDU ([4]; 70 g ae/ha): 100%; GR50 LIDDU [4, 5]: <4.38 g ae/ha; GR90 LIDDU [4, 6]: <4.38 g ae/ha
COC(=O)c1nc(Cl)cc(N)c1OC [Compound 1, methyl 4-amino-6-chloro-3-methoxypicolinate]	0	0	0	0	0	>280	>280	>280	100	100	100	95	100	<17.5	<17.5	<17.5			
COC(=O)c1nc(-c2ccc(Cl)cc2F)cc(N)c1OC [Compound 6, Methyl 4-amino-6-(4-chloro-2-fluorophenyl)-3-methoxypicolinate]	0	15	45	50		47.5	109	>140	100		100	100		10.7	12.4	14.3	0	0	
COc1c(C(=O)O)nc(-c2ccc(Cl)cc2)c(F)c1N [Compound 47]	15	30	45	50		30.6	98.6	>140	100	100	100	100		<8.75	<8.75	<8.75	0	100	
COc1c(C(=O)O)nc(-c2ccc(Cl)c(OC)c2F)c(F)c1N [Compound 45, 4-amino-6-(4-chloro-2-fluoro-3-methoxyphenyl)-5-fluoro-3-methoxypicolinic acid]	20	55	60	65		14.3	53.5	>140	100	100	100	100		<8.75	<8.75	<8.75	10	100	
